Test results as given in patent publication US11149011B2, “Compounds and methods for IDO and TDO modulation, and indications therefor” (Plexxikon Inc., priority 2018, dated 2021).

Experiments:
[1] = target: T1, IDO1-expressing HEK293 cell clones (Homo sapiens, UniProt P14902); assay: Cell based kynurenine assay, IDO1-expressing HEK293 cell clones; details: HEK293 cells, 24 hours of incubation, geometric mean; read-out: HEK293 IDO1 Kynurenine GMean IC50 (μM) (Cellular Assay)
T1 construct: expressed in transfected cells; host or cells: HEK293
Experimental: (§1) IDO1-expressing or TDO-expressing HEK293 cell clones are generated upon stable transfection of plasmids expressing human IDO or human TDO under the control of CMV promoter. Cells are selected in DMEM media supplemented with 10% fetal bovine serum and 1 mg/ml G418 at 37° C. in a humidified incubator supplied with 5% CO2. The assays are performed as follows.
(§2) Cells were seeded in a 96 well plate in 50 μL of culture media at a density of 2.5×10^4 per well. Serial dilutions of compounds (in total volume of 50 μL culture media) are added into cells. 4 wells containing 0.2% DMSO treated cells serve as high controls and 4 wells containing media only with 0.2% DMSO serve as low controls. After 24 hours of incubation, the supernatant was transferred to a 384 well reaction plate and the kynurenine level determined. The percentage inhibition at individual concentrations relative to high and low controls is calculated. The data is analyzed by using nonlinear regression to generate IC50 values.

TDO = target: T2, TDO (Homo sapiens, UniProt P48775); assay: TDO enzymatic assay; details: geometric mean; read-out: TDO GMean: IC50 (μM) (Biochemical Assay)
T2 construct: His tag (N); made in house; host or cells: E. coli
Experimental: (§3) Human IDO or TDO with N-terminal His tag is purified in E. coli. The IDO enzymatic assay is performed using 6 nM IDO and 10 μM L-Trp in the presence of 10 mM ascorbic acid, 5 μM methylene blue, 100 nM catalase and 0.01% Tween 20 in 50 mM sodium phosphate buffer (pH 6.5). 19 μL of above reaction mixture is added to wells of 384 well reaction plate containing 1 μL of various concentrations of test compound or DMSO vehicle and incubated for 20 minutes at room temperature. The TDO enzymatic reaction assay is performed using 1 nM TDO and 350 μM L-Trp in the presence of 10 mM ascorbic acid, 0.4 μM methylene blue, 100 nM catalase and 0.01% Tween 20 in 50 mM sodium phosphate buffer (pH 6.5). 19 μL of above reaction mixture is added to wells of 384 well reaction plate containing 1 μL of various concentrations of test compound or DMSO vehicle and incubated for 70 minutes at room temperature. 16 wells containing all the components of reaction mixture and 5% DMSO serve as high control. 16 well containing all the components except enzyme of reaction mixture and 5% DMSO serves as low control. Both IDO and TDO enzymatic reactions are stopped by addition of 4 μL of 30% TCA and incubated 30 minutes at 50° C. to hydrolyze N-formylkynurenine produced by IDO or TDO to kynurenine. Upon measuring the kynurenine level, the percentage inhibition is calculated at individual concentrations relative to high and low controls. The data is analyzed by using nonlinear regression to generate IC50 values.

[2] = target: T3, TDO-expressing HEK293 cell clones (Homo sapiens, UniProt P48775); assay: Cell based kynurenine assay, TDO-expressing HEK293 cell clones; details: HEK293 cells, 24 hours of incubation, geometric mean; read-out: HEK293 TDO Kynurenine GMean IC50 (μM) (Cellular Assay)
T3 construct: expressed in transfected cells; host or cells: HEK293
Experimental: as §1, §2

IDO1 = target: T4, IDO1 (Homo sapiens, UniProt P14902); assay: IDO enzymatic assay; assay type: biochemical; details: geometric mean; read-out: IDO1 GMean: IC50 (μM) (Biochemical Assay)
T4 construct: His tag (N); made in house; host or cells: E. coli
Experimental: as §3

T4 sequence (P14902 whole entry): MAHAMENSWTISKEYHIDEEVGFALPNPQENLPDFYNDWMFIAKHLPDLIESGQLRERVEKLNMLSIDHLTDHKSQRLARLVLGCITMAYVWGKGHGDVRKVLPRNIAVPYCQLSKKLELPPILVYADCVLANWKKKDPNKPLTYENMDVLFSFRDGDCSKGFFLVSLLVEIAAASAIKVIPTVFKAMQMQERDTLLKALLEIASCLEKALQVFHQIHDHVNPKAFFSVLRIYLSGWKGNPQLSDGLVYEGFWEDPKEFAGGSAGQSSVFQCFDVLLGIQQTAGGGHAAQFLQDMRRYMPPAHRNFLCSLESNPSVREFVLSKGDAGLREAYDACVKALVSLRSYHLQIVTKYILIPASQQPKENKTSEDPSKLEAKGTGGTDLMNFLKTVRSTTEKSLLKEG
T1 sequence (P14902 whole entry): as above
T2 sequence (P48775 whole entry): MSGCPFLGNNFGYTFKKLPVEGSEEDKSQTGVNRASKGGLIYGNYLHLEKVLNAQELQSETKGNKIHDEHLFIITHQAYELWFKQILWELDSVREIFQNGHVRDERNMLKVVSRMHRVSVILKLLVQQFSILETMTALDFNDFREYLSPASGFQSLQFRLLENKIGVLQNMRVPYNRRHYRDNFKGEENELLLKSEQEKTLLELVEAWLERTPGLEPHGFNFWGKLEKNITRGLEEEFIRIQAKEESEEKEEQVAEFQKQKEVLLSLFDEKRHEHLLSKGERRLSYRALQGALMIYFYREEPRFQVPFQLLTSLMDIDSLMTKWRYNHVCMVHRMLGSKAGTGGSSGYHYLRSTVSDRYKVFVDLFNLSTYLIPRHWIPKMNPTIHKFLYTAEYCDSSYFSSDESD
T3 sequence (P48775 whole entry): as above

Compound | IC50 [1] [µM] | IC50 (TDO) [µM] | IC50 [2] [µM] | IC50 (IDO1) [µM]
CC(C)(C1CCN(C(=O)NCC2(O)CCC2)CC1)[C@H](O)c1cc(Cl)cc2cn[nH]c12 [Compound P-0029, (S)-4-(1-(5-chloro-1H-indazol-7-yl)-1-hydroxy-2-methylpropan-2-yl)-N-((1-hydroxycyclobutyl)methyl)piperidine-1-carboxamide] | 0.0001 to 10 | 0.0001 to 10 | 0.0001 to 10 | 0.0001 to 10
CC(C)(C1CCN(C(=O)NCCC#N)CC1)[C@H](O)c1cc(Cl)cc2cn[nH]c12 [Compound P-0030, (S)-4-(1-(5-chloro-1H-indazol-7-yl)-1-hydroxy-2-methylpropan-2-yl)-N-(2-cyanoethyl)piperidine-1-carboxamide] | 0.0001 to 10 | 0.0001 to 10 | 0.0001 to 10 | 0.0001 to 10
CC1(CNC(=O)N2CCC(C(C)(C)[C@H](O)c3cc(Cl)cc4cn[nH]c34)CC2)COC1 [Compound P-0031, (S)-4-(1-(5-chloro-1H-indazol-7-yl)-1-hydroxy-2-methylpropan-2-yl)-N-((3-methyloxetan-3-yl)methyl)piperidine-1-carboxamide] | 0.0001 to 10 | 0.0001 to 10 | > 10 | 0.0001 to 10
CC(C)(C1CCN(C(=O)Nc2ccc(Cl)nc2)CC1)[C@H](O)c1cc(Cl)cc2cn[nH]c12 [Compound P-0032, (S)-4-(1-(5-chloro-1H-indazol-7-yl)-1-hydroxy-2-methylpropan-2-yl)-N-(6-chloropyridin-3-yl)piperidine-1-carboxamide] | 0.0001 to 10 | 0.0001 to 10 | > 10 | 0.0001 to 10
N#CCC(=O)N1CCC(C(F)(F)C(=O)c2c(F)c(Cl)cc3cn[nH]c23)CC1 [Compound P-0033, 3-(4-(2-(5-chloro-6-fluoro-1H-indazol-7-yl)-1,1-difluoro-2-oxoethyl)piperidin-1-yl)-3-oxopropanenitrile] | 0.0001 to 10 | 0.0001 to 10 | > 10 | 0.0001 to 10
COCC(=O)N1CCC(C(F)(F)C(=O)c2c(F)c(Cl)cc3cn[nH]c23)CC1 [Compound P-0034, 1-(5-chloro-6-fluoro-1H-indazol-7-yl)-2,2-difluoro-2-(1-(2-methoxyacetyl)piperidin-4-yl)ethan-1-one] | 0.0001 to 10 | 0.0001 to 10 | 0.0001 to 10 | 0.0001 to 10
CCNC(=O)N1CCC(C(F)(F)C(=O)c2c(F)c(Cl)cc3cn[nH]c23)CC1 [Compound P-0035, 4-(2-(5-chloro-6-fluoro-1H-indazol-7-yl)-1,1-difluoro-2-oxoethyl)-N-ethylpiperidine-1-carboxamide] | 0.0001 to 10 | 0.0001 to 10 | 0.0001 to 10 | 0.0001 to 10
O=C(NCC1CC1)N1CCC(C(F)(F)C(=O)c2c(F)c(Cl)cc3cn[nH]c23)CC1 [Compound P-0036, 4-(2-(5-chloro-6-fluoro-1H-indazol-7-yl)-1,1-difluoro-2-oxoethyl)-N-(cyclopropylmethyl)piperidine-1-carboxamide] | 0.0001 to 10 | 0.0001 to 10 | 0.0001 to 10 | 0.0001 to 10
COCCCNC(=O)N1CCC(C(F)(F)C(=O)c2c(F)c(Cl)cc3cn[nH]c23)CC1 [Compound P-0037, 4-(2-(5-chloro-6-fluoro-1H-indazol-7-yl)-1,1-difluoro-2-oxoethyl)-N-(3-methoxypropyl)piperidine-1-carboxamide] | 0.0001 to 10 | 0.0001 to 10 | 0.0001 to 10 | 0.0001 to 10
CS(=O)(=O)CCNC(=O)N1CCC(C(F)(F)C(=O)c2c(F)c(Cl)cc3cn[nH]c23)CC1 [Compound P-0038, 4-(2-(5-chloro-6-fluoro-1H-indazol-7-yl)-1,1-difluoro-2-oxoethyl)-N-(2-(methylsulfonyl)ethyl)piperidine-1-carboxamide] | 0.0001 to 10 | 0.0001 to 10 | > 10 | 0.0001 to 10
O=C(NCCC(F)(F)F)N1CCC(C(F)(F)C(=O)c2c(F)c(Cl)cc3cn[nH]c23)CC1 [Compound P-0039, 4-(2-(5-chloro-6-fluoro-1H-indazol-7-yl)-1,1-difluoro-2-oxoethyl)-N-(3,3,3-trifluoropropyl)piperidine-1-carboxamide] | 0.0001 to 10 | 0.0001 to 10 | 0.0001 to 10 | 0.0001 to 10
O=C(NC1CC(F)(F)C1)N1CCC(C(F)(F)C(=O)c2c(F)c(Cl)cc3cn[nH]c23)CC1 [Compound P-0040, 4-(2-(5-chloro-6-fluoro-1H-indazol-7-yl)-1,1-difluoro-2-oxoethyl)-N-(3,3-difluorocyclobutyl)piperidine-1-carboxamide] | 0.0001 to 10 | 0.0001 to 10 | 0.0001 to 10 | 0.0001 to 10
O=C(NC1CCC(F)(F)CC1)N1CCC(C(F)(F)C(=O)c2c(F)c(Cl)cc3cn[nH]c23)CC1 [Compound P-0041, 4-(2-(5-chloro-6-fluoro-1H-indazol-7-yl)-1,1-difluoro-2-oxoethyl)-N-(4,4-difluorocyclohexyl)piperidine-1-carboxamide] | 0.0001 to 10 | 0.0001 to 10 | 0.0001 to 10 | 0.0001 to 10
N#CCCCNC(=O)N1CCC(C(F)(F)C(=O)c2c(F)c(Cl)cc3cn[nH]c23)CC1 [Compound P-0042, 4-(2-(5-chloro-6-fluoro-1H-indazol-7-yl)-1,1-difluoro-2-oxoethyl)-N-(3-cyanopropyl)piperidine-1-carboxamide] | 0.0001 to 10 | 0.0001 to 10 | 0.0001 to 10 | 0.0001 to 10
O=C(NCCCF)N1CCC(C(F)(F)C(=O)c2c(F)c(Cl)cc3cn[nH]c23)CC1 [Compound P-0043, 4-(2-(5-chloro-6-fluoro-1H-indazol-7-yl)-1,1-difluoro-2-oxoethyl)-N-(3-fluoropropyl)piperidine-1-carboxamide] | 0.0001 to 10 | 0.0001 to 10 | > 10 | 0.0001 to 10
CC(C)(C1CCN(C(=O)c2cccnc2)CC1)C(O)c1cc(Cl)cc2[nH]ncc12 (stereo not drawn) [Compound P-0044, (4-(1-(6-chloro-1H-indazol-4-yl)-1-hydroxy-2-methylpropan-2-yl)piperidin-1-yl)(pyridin-3-yl)methanone] | 0.0001 to 10 | 0.0001 to 10 | 0.0001 to 10 | 0.0001 to 10
CCCC(=O)N1CCC(C(C)(C)C(O)c2cc(Cl)cc3[nH]ncc23)CC1 (stereo not drawn) [Compound P-0045, 1-(4-(1-(6-chloro-1H-indazol-4-yl)-1-hydroxy-2-methylpropan-2-yl)piperidin-1-yl)butan-1-one] | 0.0001 to 10 | 0.0001 to 10 | 0.0001 to 10 | 0.0001 to 10
CC(C)(C1CCN(C(=O)C2CC2)CC1)C(O)c1cc(Cl)cc2[nH]ncc12 (stereo not drawn) [Compound P-0046, (4-(1-(6-chloro-1H-indazol-4-yl)-1-hydroxy-2-methylpropan-2-yl)piperidin-1-yl)(cyclopropyl)methanone] | > 10 | 0.0001 to 10 | 0.0001 to 10 | 0.0001 to 10
CC(C)(C1CCN(C(=O)CC#N)CC1)C(O)c1cc(Cl)cc2[nH]ncc12 (stereo not drawn) [Compound P-0047, 3-(4-(1-(6-chloro-1H-indazol-4-yl)-1-hydroxy-2-methylpropan-2-yl)piperidin-1-yl)-3-oxopropanenitrile] | 0.0001 to 10 | 0.0001 to 10 | 0.0001 to 10 | 0.0001 to 10
CC(C)(C1CCN(C(=O)C2CCOCC2)CC1)C(O)c1cc(Cl)cc2[nH]ncc12 (stereo not drawn) [Compound P-0048, (4-(1-(6-chloro-1H-indazol-4-yl)-1-hydroxy-2-methylpropan-2-yl)piperidin-1-yl)(tetrahydro-2H-pyran-4-yl)methanone] | 0.0001 to 10 | 0.0001 to 10 | 0.0001 to 10 | 0.0001 to 10
COCC(=O)N1CCC(C(C)(C)C(O)c2cc(Cl)cc3[nH]ncc23)CC1 (stereo not drawn) [Compound P-0049, 1-(4-(1-(6-chloro-1H-indazol-4-yl)-1-hydroxy-2-methylpropan-2-yl)piperidin-1-yl)-2-methoxyethan-1-one] | 0.0001 to 10 | 0.0001 to 10 | 0.0001 to 10 | 0.0001 to 10
